The record followed here is publication PMC7156367, “Cell surface processing of the P1 adhesin of Mycoplasma pneumoniae identifies novel domains that bind host molecules” (Scientific Reports, 2020).

For orientation: Kd means a measure of binding affinity in units of concentration.

One experiment addresses T1, plasminogen (Homo sapiens, UniProt P00747).
T1 construct: purchased Merck Millipore (Code 528175) or Sigma (Glu-plasminogen, Code P7999); host or cells: human plasma
The experiment can be described thus: Microscale thermophoresis, binding to plasminogen. The method, then: (§1) Binding affinities to fluorescent labelled host proteins was measured by microscale thermophoresis as described in[72]. Microscale thermophoresis was set to 30 s and samples were scanned with 40%, 60% and 80% MST Power. Dissociation constants were determined from generated dissociation curves with set hot/cold or thermophoresis settings. As a control, a scrambled version of the C-terminal P1 peptide ([…]) was synthesised by Chempeptide Limited (China) without any tags and binding affinities was measured.

The target of the next experiment is T2, fetuin (Bos taurus, UniProt P12763).
T2 construct: purchased Sigma F3004
T2 sequence (P12763 19-359): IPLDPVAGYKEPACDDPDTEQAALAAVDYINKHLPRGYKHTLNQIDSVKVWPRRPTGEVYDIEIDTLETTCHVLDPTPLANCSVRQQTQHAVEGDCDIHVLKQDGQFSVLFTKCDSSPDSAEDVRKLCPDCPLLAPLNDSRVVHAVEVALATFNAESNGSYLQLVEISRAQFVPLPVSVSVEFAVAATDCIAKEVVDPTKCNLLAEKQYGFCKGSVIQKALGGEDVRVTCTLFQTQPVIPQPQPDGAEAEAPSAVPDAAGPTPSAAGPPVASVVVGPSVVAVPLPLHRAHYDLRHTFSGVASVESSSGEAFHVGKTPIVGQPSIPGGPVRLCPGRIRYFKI
The experiment can be described thus: Microscale thermophoresis, binding to fetuin. The method, then: as §1

The subject of the next experiment is cytokeratin 18. The experiment can be described thus: Affinity chromatography of A549 lysate on P1-15, cytokeratin 18. The conditions noted are these: biotinylated P1-15 on avidin agarose vs uncoupled avidin agarose control, native A549 cell lysate. Type of experiment: binding, human. The method, then:
(§2) The C-terminal sequence of P1 (P1-15) was synthesised with an N-terminal biotin tag by Chempeptide Limited (China). Affinity chromatography was performed similar to the section above. In brief, 1 mg of the peptide was added to Avidin Agarose beads for 16 h at 4 °C. The beads were washed four times (5 ml per wash) with PBS before being incubated with native A549 cell lysates (harvested in 1% w/v C7BzO in PBS) for 16 h at 4 °C. Non-binding proteins were washed from the column with four washes (5 ml per wash) of PBS and protein complexes with an affinity to the peptide were eluted from the column with 7 M urea, 2 M thiourea, 40 mM Tris-HCl, and 1% (w/v) C7BzO (4 times of 2 ml). Eluents were concentrated with a Macrosep® 3 kDa cutoff centrifugal device (Pall), precipitated with acetone, and separated by 1D-SDS PAGE. The whole lane was divided into sections, in-gel digested with trypsin, and analysed by LC-MS/MS as described above.

Another experiment deals with panel of host proteins. Kind of experiment: Microtitre binding assays, panel of host proteins. Also noted: species or system human. Particulars: 15 µg/ml of C-terminal P1 fragments bound to wells. As to the method:
(§3) Human proteins used for ELISA include: plasma fibrinogen (Code: F3879), plasma fibronectin (Code: 11051407001), Glu-plasminogen (Code: P7999), vitronectin (Code: SRP3186), laminin (Code: L6274), and lactoferrin (Code: L1294) which were all supplied by Sigma.
(§4) Binding affinity measured by ELISA was performed as described previously. Recombinant protein RP15 was produced as described[55] and both C-terminal peptides were synthesised by Chempeptide Limited (China). P1-30 (^1597[…]^1627) without any tags, but P1-15 (^1613PGAPKPPVQPPKKPA^1627) was sequenced with an N-terminal biotin tag.
(§5) 15 µg/ml of C-terminal P1 fragments were bound to wells and incubated with different host proteins. Wells were then incubated with different antiserum raised against the different host proteins at the following dilutions (all from Sigma): anti-fibrinogen 1:3000, anti-fibronectin 1:1000, anti-plasminogen: 1:2500, anti-vitronectin 1:5000, anti-laminin 1:750, and anti-lactoferrin 1:5,000. These incubations were followed by incubations with anti-rabbit IgG (Dako) or anti-goat IgG (both 1:2,000). Detection was measured by adding Tetramethylbenzidine (Sigma) followed by 1 M HCl, and absorbance was measured at 450 nm (620 nm as reference).

The test system of another experiment is vitronectin. The experiment can be described thus: Microtitre plate binding assay (ELISA), vitronectin. The conditions noted are these: 15 µg/ml of C-terminal P1 fragments bound to wells, absorbance 450 nm (620 nm reference), eight replicates, P1-15 with N-terminal biotin tag. Further details: species or system human. As to the method: as §3, §4, §5
(In general: An ELISA detects its analyte on a solid surface through an enzyme-linked reagent.)

Experiment [1] has as its system glyceraldehyde-3-phosphate dehydrogenase. The experiment can be described thus: Affinity chromatography of A549 lysate on P1-15, glyceraldehyde-3-phosphate dehydrogenase. The class given is binding, human. The conditions noted are these: slice 3; biotinylated P1-15 on avidin agarose vs uncoupled control; native A549 cell lysate. As to the method: as §2
The subject of a further experiment is vimentin. Kind of experiment: Affinity chromatography of A549 lysate on P1-15, vimentin. Type of experiment: binding, human. The conditions noted are these: biotinylated P1-15 on avidin agarose vs uncoupled avidin agarose control, native A549 cell lysate. As to the method: as §2
The next experiment deals with laminin. The experiment can be described thus: Microtitre plate binding assay (ELISA), laminin. Further details: species or system human. The conditions noted are these: 15 µg/ml of C-terminal P1 fragments bound to wells, absorbance 450 nm (620 nm reference), eight replicates, P1-15 with N-terminal biotin tag. The method, then: as §3, §4, §5
The test system of the next experiment is lactoferrin. The experiment can be described thus: Microtitre plate binding assay (ELISA), lactoferrin. Particulars: 15 µg/ml of C-terminal P1 fragments bound to wells, absorbance 450 nm (620 nm reference), eight replicates, P1-15 with N-terminal biotin tag. Further details: species or system human. The method, then:
as §3, §4, §5

For a further experiment, the system named is Glu-plasminogen. The experiment can be described thus: Microtitre plate binding assay (ELISA), plasminogen. Also noted: species or system human. The conditions noted are these: 15 µg/ml of C-terminal P1 fragments bound to wells, absorbance 450 nm (620 nm reference), eight replicates, P1-15 with N-terminal biotin tag. As to the method: as §3, §4, §5
The next experiment concerns cytokeratin 8. The experiment can be described thus: Affinity chromatography of A549 lysate on P1-15, cytokeratin 8. The conditions noted are these: biotinylated P1-15 on avidin agarose vs uncoupled avidin agarose control, native A549 cell lysate. Type of experiment: binding, human. As to the method: as §2
A further experiment concerns cytokeratin 7. Kind of experiment: Affinity chromatography of A549 lysate on P1-15, cytokeratin 7. Type of experiment: binding, human. Particulars: biotinylated P1-15 on avidin agarose vs uncoupled avidin agarose control, native A549 cell lysate. The method, then: as §2
The subject of the next experiment is plasma fibrinogen. Kind of experiment: Microtitre plate binding assay (ELISA), fibrinogen. The conditions noted are these: 15 µg/ml of C-terminal P1 fragments bound to wells, absorbance 450 nm (620 nm reference), eight replicates, P1-15 with N-terminal biotin tag. Further details: species or system human. The method, then: as §3, §4, §5
Another experiment deals with plasma fibronectin. Kind of experiment: Microtitre plate binding assay (ELISA), fibronectin. Further details: species or system human. Particulars: 15 µg/ml of C-terminal P1 fragments bound to wells, absorbance 450 nm (620 nm reference), eight replicates, P1-15 with N-terminal biotin tag. As to the method: as §3, §4, §5
Setting [2] is: listed as 1613PGAPKPPVQPPKKPA^1627.

Entries after “also recorded” stand apart in the source; their conditions may differ. Where a SMILES comes first, the peptide text is derived from it.

For the compound `CC(C)[C@H](NC(=O)[C@@H]1CCCN1C(=O)[C@@H]1CCCN1C(=O)[C@H](CCCCN)NC(=O)[C@@H]1CCCN1C(=O)[C@H](C)NC(=O)CNC(=O)[C@@H]1CCCN1C(=O)[C@H](CCCCN)NC(=O)[C@@H]1CCCN1C(=O)[C@@H]1CCCN1C(=O)[C@@H](NC(=O)[C@@H]1CCCN1C(=O)[C@@H]1CCCN1C(=O)[C@H](CCCNC(=N)N)NC(=O)[C@@H]1CCCN1C(=O)[C@H](C)NC(=O)CNC(=O)[C@@H]1CCCN1C(=O)[C@H](CCCCN)NC(=O)[C@H](C)NC(=O)[C@H](C)NC(=O)[C@H](CO)NC(=O)[C@@H](N)[C@@H](C)O)C(C)C)C(=O)N[C@@H](CCC(N)=O)C(=O)N1CCC[C@H]1C(=O)N1CCC[C@H]1C(=O)N[C@@H](CCCCN)C(=O)N[C@@H](CCCCN)C(=O)N1CCC[C@H]1C(=O)N[C@@H](C)C(=O)O` [P1-30] (H-TSAAKPGAPRPPVPPKPGAPKPPVQPPKKPA-OH), on plasminogen, binding was characterised by a dissociation constant (Kd) of 554 ± 2.1 nM.

“PKPPRAAPPKAPTPVPPGPASPVKKPKQAPG [scrambled version of P1-30, scrambled version of the C-terminal P1 peptide ([…])]”: the “binding affinity in words, fetuin” value at fetuin is reported as “No binding affinity could be detected”. Moreover, the “KD, fetuin” value at fetuin (fluorescent labelled host protein, 30 s, 40%, 60% and 80% MST Power) is given as “could not be assigned a KD value”. At plasminogen (microscale thermophoresis), the “binding affinity in words, plasminogen” value was “No binding affinity could be detected”. Moreover, the “KD, plasminogen” value on plasminogen (microscale thermophoresis, fluorescent labelled host protein, 30 s, 40%, 60% and 80% MST Power) is recorded as “could not be assigned a KD value”.

As to “PGAPKPPVQPPKKPA [P1-15, C-terminal 15 amino acids of P1, synthesised chemically, N-terminal biotin tag]”, the “selective recovery / binding, cytokeratin 18” value with cytokeratin 18 is “selectively recovered”; in the experiment with cytokeratin 18 (setting [2]) it was “selectively bound”. The “binding to panel of host molecules” value with panel of host proteins is “bind a range of host molecules in a dose dependent manner”. In the experiment on vitronectin, the binding to vitronectin entry is reported as “also bound to vitronectin”. In addition, in [1], the “recovery of glyceraldehyde-3-phosphate dehydrogenase” value is listed as “also identified in the eluents from the control”. For the same compound, the “selective recovery / binding, vimentin” value is “selectively recovered” in the experiment on vimentin and “selectively bound” in the experiment on vimentin (setting [2]). The binding to laminin result in the experiment on laminin is on record as “failed to bind laminin”. In addition, the binding to lactoferrin result in the experiment with lactoferrin is given as “failed to bind laminin, lactoferrin”. The binding to plasminogen entry with Glu-plasminogen is “only bound plasminogen in a dose dependent manner; also recorded: bound plasminogen in a dose-responsive manner”. Also, the figures for the “selective recovery / binding, cytokeratin 8” value with cytokeratin 8 and with cytokeratin 8 (setting [2]) were “selectively recovered” and “selectively bound”, respectively. Also, the “selective recovery / binding, cytokeratin 7” value is “selectively recovered” in the experiment with cytokeratin 7 and “selectively bound” in the experiment on cytokeratin 7 (setting [2]). Also, in the experiment on plasma fibrinogen, the binding to fibrinogen entry is “failed to bind laminin, lactoferrin, fibronectin, and fibrinogen”. For the same compound, in the experiment on plasma fibronectin, the binding to fibronectin result was “failed to bind laminin, lactoferrin, fibronectin”.
